Several values for one entry are separate records, joined by “and”; a condition that tells them apart may be missing. Identical values can stand only once. Toxic doses and inconclusive results are not listed.
System: P388 leukemia ip, CD2F1 mice, survival T/C
Test: NCI In Vivo Anticancer Drug Screen. Data for tumor model P388 Leukemia (intraperitoneal) in CD2F1 (CDF1) mice
Conditions: endpoint: median survival time, higher = longer survival
In short: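 Mice carrying the transplanted tumor received test compound or vehicle. Survival was recorded in each group, and the value is the treated-group measurement divided by that of the vehicle-treated control group.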

[1] = dose: 50.0 mg/kg/injection, schedule: Q01DX005 (ip), vehicle: Klucel (hydroxypropylcellulose) (HPC)
[2] = dose: 200.0 mg/kg/injection, schedule: Q01DX005 (ip), vehicle: Klucel (hydroxypropylcellulose) (HPC)

CO[C@H](C(=O)[C@@H](O)[C@@H](C)O)[C@@H]1Cc2cc3cc(OC4CC(OC5CC(O)C(O)C(C)O5)C(O)C(C)O4)c(C)c(O)c3c(O)c2C(=O)[C@H]1OC1CC(OC2CC(OC3CC(C)(O)C(O)C(C)O3)C(O)C(C)O2)C(O)C(C)O1 (some centres not stated)
T/C (dose: 0.01 mg/kg/injection, schedule: Q01DX009 (ip), vehicle: saline): 100 % of control | T/C (dose: 0.02 mg/kg/injection, schedule: Q01DX009 (sc), vehicle: saline): 100 % of control | T/C (dose: 0.03 mg/kg/injection, schedule: Q01DX001 (ip), vehicle: saline): 100 % of control | T/C (dose: 0.03 mg/kg/injection, schedule: Q01DX001 (sc), vehicle: saline): 104 % of control | T/C (dose: 0.03 mg/kg/injection, schedule: Q01DX005 (iv), vehicle: saline): 100 % of control | T/C (dose: 0.03 mg/kg/injection, schedule: Q01DX009 (ip), vehicle: saline): 100 % of control | T/C (dose: 0.03 mg/kg/injection, schedule: Q01DX009 (sc), vehicle: saline): 104 % of control | T/C (dose: 0.05 mg/kg/injection, schedule: Q01DX009 (ip), vehicle: water): 109 % of control and 110 % of control | T/C (dose: 0.05 mg/kg/injection, schedule: Q01DX010 (ip), vehicle: water): 100 % of control | T/C (dose: 0.06 mg/kg/injection, schedule: Q01DX001 (ip), vehicle: saline): 100 % of control | T/C (dose: 0.06 mg/kg/injection, schedule: Q01DX001 (sc), vehicle: saline): 104 % of control | T/C (dose: 0.06 mg/kg/injection, schedule: Q01DX005 (iv), vehicle: saline): 100 % of control | T/C (dose: 0.06 mg/kg/injection, schedule: Q01DX009 (ip), vehicle: saline): 100 % of control | T/C (dose: 0.06 mg/kg/injection, schedule: Q01DX009 (sc), vehicle: saline): 100 % of control | T/C (dose: 0.1 mg/kg/injection, schedule: Q01DX009 (ip), vehicle: water): 115 % of control | T/C (dose: 0.1 mg/kg/injection, schedule: Q01DX015 (ip), vehicle: water): 100 % of control and 109 % of control | T/C (dose: 0.12 mg/kg/injection, schedule: Q01DX009 (ip), vehicle: clinical formulation): 103 % of control and 104 % of control and 108 % of control | T/C (dose: 0.12 mg/kg/injection, schedule: Q01DX009 (ip), vehicle: water): 111 % of control and 114 % of control | T/C (dose: 0.13 mg/kg/injection, schedule: Q01DX001 (ip), vehicle: saline): 100 % of control | T/C (dose: 0.13 mg/kg/injection, schedule: Q01DX001 (sc), vehicle: saline): 100 % of control | T/C (dose: 0.13 mg/kg/injection, schedule: Q01DX005 (ip), vehicle: water): 106 % of control and 107 % of control | T/C (dose: 0.13 mg/kg/injection, schedule: Q01DX005 (iv), vehicle: saline): 100 % of control | T/C (dose: 0.13 mg/kg/injection, schedule: Q01DX009 (ip), vehicle: water): 100 % of control | T/C (dose: 0.13 mg/kg/injection, schedule: Q01DX009 (sc), vehicle: saline): 100 % of control | T/C (dose: 0.16 mg/kg/injection, schedule: Q01DX009 (ip), vehicle: saline): 99 % of control | T/C (dose: 0.2 mg/kg/injection, schedule: Q01DX009 (ip), vehicle: water): 118 % of control and 120 % of control | T/C (dose: 0.2 mg/kg/injection, schedule: Q01DX015 (ip), vehicle: water): 109 % of control | T/C (dose: 0.22 mg/kg/injection, schedule: Q01DX005 (ip), vehicle: clinical formulation): 108 % of control | T/C (dose: 0.25 mg/kg/injection, schedule: Q01DX001 (ip), vehicle: saline): 100 % of control (2×) and 118 % of control | T/C (dose: 0.25 mg/kg/injection, schedule: Q01DX001 (sc), vehicle: saline): 100 % of control | T/C (dose: 0.25 mg/kg/injection, schedule: Q01DX005 (ip), vehicle: water): 108 % of control and 116 % of control | T/C (dose: 0.25 mg/kg/injection, schedule: Q01DX005 (iv), vehicle: saline): 100 % of control | T/C (dose: 0.25 mg/kg/injection, schedule: Q01DX009 (ip), vehicle: clinical formulation): 105 % of control and 109 % of control | T/C (dose: 0.25 mg/kg/injection, schedule: Q01DX009 (oral), vehicle: saline): 109 % of control | T/C (dose: 0.25 mg/kg/injection, schedule: Q01DX009 (sc), vehicle: saline): 100 % of control | T/C (dose: 0.25 mg/kg/injection, schedule: Q03HX008 (ip), vehicle: saline): 108 % of control | T/C (dose: 0.25 mg/kg/injection, schedule: Q04DX024 (ip), vehicle: saline): 116 % of control | T/C (dose: 0.25 mg/kg/injection, schedule: Q08DX002 (ip), vehicle: saline): 118 % of control | T/C (dose: 0.27 mg/kg/injection, schedule: Q01DX009 (ip), vehicle: saline): 99 % of control | T/C (dose: 0.3 mg/kg/injection, schedule: Q01DX015 (ip), vehicle: water): 104 % of control and 118 % of control | T/C (dose: 0.36 mg/kg/injection, schedule: Q01DX005 (ip), vehicle: clinical formulation): 105 % of control | T/C (dose: 0.4 mg/kg/injection, schedule: Q01DX015 (ip), vehicle: water): 109 % of control | T/C (dose: 0.45 mg/kg/injection, schedule: Q01DX009 (ip), vehicle: saline): 102 % of control | T/C (dose: 0.5 mg/kg/injection, schedule: Q01DX001 (ip), vehicle: saline): 100 % of control (2×) and 113 % of control | T/C (dose: 0.5 mg/kg/injection, schedule: Q01DX001 (oral), vehicle: saline): 100 % of control | T/C (dose: 0.5 mg/kg/injection, schedule: Q01DX001 (sc), vehicle: saline): 100 % of control | T/C (dose: 0.5 mg/kg/injection, schedule: Q01DX005 (ip), vehicle: water): 111 % of control and 114 % of control | T/C (dose: 0.5 mg/kg/injection, schedule: Q01DX005 (iv), vehicle: saline): 100 % of control | T/C (dose: 0.5 mg/kg/injection, schedule: Q01DX009 (ip), vehicle: clinical formulation): 116 % of control | T/C (dose: 0.5 mg/kg/injection, schedule: Q01DX009 (ip), vehicle: saline): 113 % of control | T/C (dose: 0.5 mg/kg/injection, schedule: Q01DX009 (ip), vehicle: water): 150 % of control | T/C (dose: 0.5 mg/kg/injection, schedule: Q01DX009 (oral), vehicle: saline): 109 % of control | T/C (dose: 0.5 mg/kg/injection, schedule: Q01DX009 (sc), vehicle: saline): 100 % of control | T/C (dose: 0.5 mg/kg/injection, schedule: Q01DX015 (ip), vehicle: water): 118 % of control | T/C (dose: 0.5 mg/kg/injection, schedule: Q03HX008 (ip), vehicle: saline): 108 % of control | T/C (dose: 0.6 mg/kg/injection, schedule: Q01DX005 (ip), vehicle: clinical formulation): 113 % of control | T/C (dose: 0.65 mg/kg/injection, schedule: Q01DX009 (ip), vehicle: water): 150 % of control | T/C (dose: 0.75 mg/kg/injection, schedule: Q01DX009 (ip), vehicle: saline): 104 % of control | T/C (dose: 1.0 mg/kg/injection, schedule: Q01DX001 (ip), vehicle: saline): 118 % of control | T/C (dose: 1.0 mg/kg/injection, schedule: Q01DX001 (oral), vehicle: saline): 104 % of control | T/C (dose: 1.0 mg/kg/injection, schedule: Q01DX001 (sc), vehicle: saline): 104 % of control | T/C (dose: 1.0 mg/kg/injection, schedule: Q01DX005 (ip), vehicle: water): 118 % of control | T/C (dose: 1.0 mg/kg/injection, schedule: Q01DX009 (ip), vehicle: clinical formulation): 104 % of control | T/C (dose: 1.0 mg/kg/injection, schedule: Q01DX009 (oral), vehicle: saline): 109 % of control | T/C (dose: 1.0 mg/kg/injection, schedule: Q03HX008 (ip), vehicle: saline): 116 % of control | T/C (dose: 1.0 mg/kg/injection, schedule: Q08DX002 (ip), vehicle: saline): 109 % of control | T/C (dose: 2.0 mg/kg/injection, schedule: Q01DX001 (oral), vehicle: saline): 100 % of control | T/C (dose: 2.0 mg/kg/injection, schedule: Q01DX009 (ip), vehicle: clinical formulation): 116 % of control | T/C (dose: 2.0 mg/kg/injection, schedule: Q01DX009 (oral), vehicle: saline): 109 % of control | T/C (dose: 4.0 mg/kg/injection, schedule: Q01DX001 (oral), vehicle: saline): 100 % of control

CC1=NNC2(CCCCC2)C1
T/C (dose: 12.5 mg/kg/injection, schedule: Q01DX009 (ip), vehicle: water): 113 % of control | T/C (dose: 25.0 mg/kg/injection, schedule: Q01DX009 (ip), vehicle: water): 103 % of control | T/C (dose: 50.0 mg/kg/injection, schedule: Q01DX009 (ip), vehicle: water): 94 % of control | T/C (dose: 100.0 mg/kg/injection, schedule: Q01DX009 (ip), vehicle: water): 111 % of control | T/C (dose: 200.0 mg/kg/injection, schedule: Q01DX009 (ip), vehicle: water): 106 % of control

C/C=C(\NN=NC)c1ccccc1
T/C (dose: 200.0 mg/kg/injection, schedule: Q04DX002 (ip), vehicle: saline with Tween-80): 166 % of control

CCCCN(CCCC)CCNc1ccc(C)c2sc3c(Cl)cccc3c(=O)c12
T/C [1]: 99 % of control | T/C (dose: 100.0 mg/kg/injection, schedule: Q01DX005 (ip), vehicle: Klucel (hydroxypropylcellulose) (HPC)): 108 % of control | T/C [2]: 105 % of control

CCN(C)N=Nc1ccc(C(N)=O)cc1
T/C (dose: 25.0 mg/kg/injection, schedule: Q01DX005 (ip), vehicle: Klucel (hydroxypropylcellulose) (HPC)): 101 % of control and 105 % of control | T/C [1]: 95 % of control | T/C [2]: 89 % of control

Source: PubChem BioAssay AID330 (DTP/NCI, 2004)
